Measured values as given in US12503440B2, “Nitroxoline derivative, preparation method therefor, and use thereof” (Jiangsu Yahong Meditech Co., Ltd., priority 2020, dated 2025).
Converted amounts (≈) assume the structure as drawn.

What was measured:
Assay type in all cases: cell-based
[1] = system: Escherichia coli; test: Bacteriostatic activity, micro broth dilution MIC (CLSI); details: 20 hours; for MIC50 / MIC90: clinical strains (carbapenem-resistant), CAMHB; for MIC50: read-out: Escherichia coli Clinical strain MIC50; for MIC90: read-out: Escherichia coli Clinical strain MIC90; for MIC: standard strain ATCC25922, CAMHB
Protocol: (§1) The purpose of this test is to determine the bacteriostatic activity of the compounds of the present invention against a representative panel of strains (Gram-negative bacteria: […] ATCC 25922, Acinetobacter baumannii ATCC 19606; Gram-positive bacteria: Staphylococcus aureus ATCC29213). Bacteriostatic activity was determined by minimum inhibitory concentration (MIC), MIC50, MIC90. This test was entrusted to Shanghai Junj Lab Co., Ltd. Except for the test drugs, all other test materials were provided by Shanghai Junj Lab Co., Ltd.
(§2) The tested bacteria were several strains of clinically isolated carbapenem-resistant Escherichia coli, several strains of carbapenem-resistant Acinetobacter baumannii, several strains of methicillin-resistant Staphylococcus aureus, and several strains of sensitive Staphylococcus aureus. Duplicate strains isolated from the same patient were eliminated. There were also three quality control strains Escherichia coli ATCC 25922, Acinetobacter baumannii ATCC 19606, and Staphylococcus aureus ATCC 29213. The activity test of each compound was carried out on one or more strains of each of the above test bacteria.
(§3) According to the recommendations of relevant documents of the American Clinical and Laboratory Standards Institute (CLSI), the micro broth dilution method was used to determine the MIC of the compounds of the present invention against clinically isolated strains. The culture solution free of drug was used as the test bacteria positive control, the culture solution free of bacterial solution was used as the drug negative control, and the culture solution free of drug solution and bacterial solution was used as the blank control. • 4.1 Formulation of antibacterial drug: All the compounds of the present invention were dissolved in DMSO. The drug concentration range was 128 mg/L-0.06 mg/L. Specific method: The compounds of the present invention were successively diluted by 1:1 with DMSO to obtain an intermediate series with a range of 25600 mg/L-12.5 mg/L. 30 μL of solution from each tube of the intermediate series of each compound was added to a 3 mL/tube series of single broth tube, and mixed well to obtain an intermediate series with a range of 256 mg/L to 0.125 mg/L. The diluted series solution was added to the drug susceptibility plate line by line, 50 μL of solution per well. All ranges became investigated ranges after being mixed with an equal volume of bacterial solution: 128-0.06 mg/L. • 4.2 Culture medium: The drug susceptibility test used cation adjusted Mueller-Hinton broth (CAMHB). • 4.3 Amount of inoculum: The test bacteria cultured overnight were adjusted to 0.5 McFarland turbidity by the direct colony suspension method, and diluted 100 folds, the final inoculum amount was 10^5 CFU/mL. • 4.4 Culture conditions: The test bacteria were cultured at 35±2° C. for 20 hours in air. 5. Interpretation and Judgment of Results
(§4) The drug susceptibility test results were interpretated by reference to CLSI 2019 edition M100 29th edition criteria.
(§5) The results of drug susceptibility test were statistically analyzed by WHONET version 5.6 software.
(§6) The culture solution free of bacterial solution was used as the drug negative control, and the culture solution free of drug solution and bacterial solution was used as the blank control, wherein no bacteria grew in both solutions.

[2] = system: Staphylococcus aureus; test: as above; details: 20 hours; for MIC50 / MIC90: clinical strains (methicillin-resistant and sensitive), CAMHB; for MIC50: read-out: Staphylococcus aureus Clinical strain MIC50; for MIC90: read-out: Staphylococcus aureus Clinical strain MIC90; for MIC: standard strain ATCC29213, CAMHB
Protocol: as §1, §2, §3, §4, §5, §6

[3] = system: Acinetobacter baumannii; test: as above; details: 20 hours; for MIC50 / MIC90: clinical strains (carbapenem-resistant), CAMHB; for MIC50: read-out: Acinetobacter baumannii Clinical strain MIC50; for MIC90: read-out: Acinetobacter baumannii Clinical strain MIC90; for MIC: standard strain ATCC19606, CAMHB
Protocol: as §1, §2, §3, §4, §5, §6

[4] = system: Bladder cancer cell line UM-UC-3; test: Inhibitory activity on cancer cells, CellTiter-Glo viability, 72 h; details: Homo sapiens, UMUC3, UM-UC-3, 72 h
From the text: (§7) • HUVEC (purchased from Allcells Biological Technology (Shanghai) Co., Ltd.); UM-UC-3 (ATCC); LNCaP Clone FGC (ATCC); RM-1 (purchased from Nanjing Cobioer Biosciences Co., Ltd.) 2. Reagents • Endothelial cell complete medium (Allcells, H-004) • Medium RPMI1640 (ATCC, 30-2001) • Medium EMEM (ATCC, 30-2003) • Medium DMEM (Gibco, 12430-054) • Fetal bovine serum (Gibco, 10091148) • Penicillin-streptomycin double anti-body (Gibco, S110JV) • DPBS (Gibco, 14190-144) • CellTiter-Glo® kit (Promega, G7573) • Trypsin (0.25%), phenol red (Gibco, 25200-056) • DMSO (Sigma, D2650) 3. Instruments • Biological safety cabinet (Suzhou Antai Airtech Co., Ltd., BSC-1300A II) • Inverted microscope (Nikon, CKX53) • Automated cell counter (Life Technologies, countess II) • Multifunctional microplate reader (Biotek, H1FM) • Shaker (Hangzhou Allsheng Instruments Co., Ltd., OS-100) • GraphPad Prism 5.0 software • XLFIT 5.3 (Inforstack Shanghai Co., Ltd.) 4. Test Method
(§8) In this test method, the following experiments were carried out in a biological safety cabinet, and the specific steps are as follows: • (1) On the first day, the cells were seeded in a 96-well plate, and the previous medium was poured off. 5 mL of DPBS was added to wash the cells, and then removed by a pipette. Then, 1 mL of trypsin (0.25%) was added, and the plate was placed in a cell culture incubator at 37° C., 5% CO2 for digestion, and taken out after about 2 to 5 minutes. New corresponding medium was added, and pipetted to resuspend the cells evenly, and the cells were then counted with an automated cell counter.
(§9) The digestion was observed using an inverted microscope.
(§10) Regarding to HUVEC, the medium used was endothelial cell complete medium; regarding to UM-UC-3, the medium used was 89v % EMEM+10v % fetal bovine serum+1 v % penicillin-streptomycin double anti-body; regarding to LNcaP Clone FGC, the medium used was 89v % RPM11640+10v % fetal bovine serum+1 v % penicillin-streptomycin double anti-body; and regarding to RM-1, the medium used was 89v % DMEM+10v % fetal bovine serum+1v % penicillin-streptomycin double anti-body. • (2) HUVEC cells were seeded in columns 1 to 11 of a 96-well plate (Corning, Cat. No. 3610) at a density of 2000 cells per well in 100 μL of medium, and the medium free of cell was added to the wells of column 12. The other three types of cells were also seeded, wherein UM-UC-3 and RM-1 cells were seeded at a density of 3000 cells per well, and LNCap Clone FGC cells were seeded at a density of 5000 cells per well. Then, the plate was placed in an incubator at 37° C., 5% CO2 for 24 hours. • (3) On the second day, the compounds of the present invention and the reference drug nitroxoline (obtained according to the preparation method disclosed in the prior art) were diluted in gradient (2.5 folds, started at 100 μmol) to obtain 8 dose points (there were a total of 8 columns of wells; the first column of wells had the highest concentration, the concentration decreased in turn, and the last column of wells had the lowest concentration). 10 uL of the compound diluted in gradient was added to the 100 μL of cells in column 1 to column 10 with an 8-channel pipette. 10 μL of the corresponding medium containing 0.33v % DMSO was added to column 11 and column 12. The plate was incubated in an incubator at 37° C., 5% CO2 for 72 hours (note: column 11 was used as MAX well with cells and no compounds; and column 12 was used as MIN well with no cells and no compounds). • (4) After treating with the compounds of the present invention for 72 hours, the cell viability detection reagents in the above CellTiter-Glo® kit were added to the 96-well plate at 50 μL per well according to the instructions. […]

[5] = system: Prostate cancer cell line LNcaP Clone FGC; test: as above; details: Homo sapiens
From the text: as §7, §8, §9, §10

[6] = system: Mouse prostate cancer cell line RM-1; test: as above; details: RM-1, 72 h
From the text: as §7, §8, §9, §10

| MIC50 [1] | MIC90 [1] | MIC [1] | MIC50 [2] | MIC90 [2] | MIC50 [3] | MIC90 [3] | IC50 [4] | IC50 [5] | IC50 [6] | MIC [2] | MIC [3] | SMILES |
| --- | --- | --- | --- | --- | --- | --- | --- | --- | --- | --- | --- | --- |
| 4 µg/mL (≈ 19.2 µM) | 8 µg/mL (≈ 38.4 µM) | 8 µg/mL (≈ 38.4 µM) | 4 µg/mL (≈ 19.2 µM) | 4 µg/mL (≈ 19.2 µM) | 8 µg/mL (≈ 38.4 µM) | 16 µg/mL (≈ 76.9 µM) | – | – | – | – | – | O=[N+]([O-])c1cc(F)c(O)c2ncccc12 [Example 1, 7-fluoro-5-nitroquinolin-8-ol] |
| – | – | – | – | – | – | – | 5.5 µM | 5.5 µM | – | – | – | O=[N+]([O-])c1ccc(O)c2nccc(N3CCOCC3)c12 [Example 5, 4-morpholino-5-nitroquinolin-8-ol] |
| – | – | – | – | – | – | – | 7 µM | – | – | – | – | O=[N+]([O-])c1ccc(O)c2nccc(N3CCCCC3)c12 [Example 6, 5-nitro-4-(piperidin-1-yl)quinolin-8-ol] |
| – | – | – | – | – | – | – | 3 µM | – | – | – | – | O=[N+]([O-])c1ccc(O)c2nccc(N3CCNCC3)c12 [Example 10, 5-nitro-4-(piperazin-1-yl)quinolin-8-ol] |
| – | – | – | – | – | – | – | 5 µM | 3.8 µM | – | – | – | O=[N+]([O-])c1ccc(O)c2nccc(-c3ccncc3)c12 [Example 14, 5-nitro-4-(pyridin-4-yl)quinolin-8-ol] |
| – | – | – | – | – | – | – | 4.9 µM | 4.8 µM | 2.8 µM | – | – | O=[N+]([O-])c1ccc(O)c2nccc(-c3cccnc3)c12 [Example 17, 5-nitro-4-(pyridin-3-yl)quinolin-8-ol] |
| 32 µg/mL (≈ 118 µM) | 32 µg/mL (≈ 118 µM) | 32 µg/mL (≈ 118 µM) | 4 µg/mL (≈ 14.7 µM) | 4 µg/mL (≈ 14.7 µM) | 32 µg/mL (≈ 118 µM) | 32 µg/mL (≈ 118 µM) | – | – | – | 4 µg/mL (≈ 14.7 µM) | 32 µg/mL (≈ 118 µM) | O=[N+]([O-])c1ccc(O)c2nccc(C3CCCCC3)c12 [Example 25, 4-cyclohexyl-5-nitroquinolin-8-ol] |
| 8 µg/mL (≈ 31 µM) | 16 µg/mL (≈ 62 µM) | 8 µg/mL (≈ 31 µM) | 2 µg/mL (≈ 7.75 µM) | 2 µg/mL (≈ 7.75 µM) | 8 µg/mL (≈ 31 µM) | 8 µg/mL (≈ 31 µM) | – | – | – | 2 µg/mL (≈ 7.75 µM) | 8 µg/mL (≈ 31 µM) | O=[N+]([O-])c1ccc(O)c2nccc(C(F)(F)F)c12 [Example 26, 5-nitro-4-trifluoromethylquinolin-8-ol] |
